Measured values published in publication PMC3698094, “Similarly Potent Inhibition of Adenylyl Cyclase by P-Site Inhibitors in Hearts from Wild Type and AC5 Knockout Mice” (PLoS ONE, 2013).

Assays:
Assay in all cases: radiochemical AC activity assay, […]cAMP from [α-32P]ATP, Sf9 membranes
Type in all cases: biochemical
AC5 (recombinant) [1] = target: T1, AC5 (recombinant) (Canis lupus, UniProt P30803); conditions: read-out: RecombinantACs / AC5
T1 construct: gene ADCY5; recombinant membranous AC5 expressed by baculovirus in Sf9 cells; crude Sf9 membranes
T1 sequence (P30803 whole entry): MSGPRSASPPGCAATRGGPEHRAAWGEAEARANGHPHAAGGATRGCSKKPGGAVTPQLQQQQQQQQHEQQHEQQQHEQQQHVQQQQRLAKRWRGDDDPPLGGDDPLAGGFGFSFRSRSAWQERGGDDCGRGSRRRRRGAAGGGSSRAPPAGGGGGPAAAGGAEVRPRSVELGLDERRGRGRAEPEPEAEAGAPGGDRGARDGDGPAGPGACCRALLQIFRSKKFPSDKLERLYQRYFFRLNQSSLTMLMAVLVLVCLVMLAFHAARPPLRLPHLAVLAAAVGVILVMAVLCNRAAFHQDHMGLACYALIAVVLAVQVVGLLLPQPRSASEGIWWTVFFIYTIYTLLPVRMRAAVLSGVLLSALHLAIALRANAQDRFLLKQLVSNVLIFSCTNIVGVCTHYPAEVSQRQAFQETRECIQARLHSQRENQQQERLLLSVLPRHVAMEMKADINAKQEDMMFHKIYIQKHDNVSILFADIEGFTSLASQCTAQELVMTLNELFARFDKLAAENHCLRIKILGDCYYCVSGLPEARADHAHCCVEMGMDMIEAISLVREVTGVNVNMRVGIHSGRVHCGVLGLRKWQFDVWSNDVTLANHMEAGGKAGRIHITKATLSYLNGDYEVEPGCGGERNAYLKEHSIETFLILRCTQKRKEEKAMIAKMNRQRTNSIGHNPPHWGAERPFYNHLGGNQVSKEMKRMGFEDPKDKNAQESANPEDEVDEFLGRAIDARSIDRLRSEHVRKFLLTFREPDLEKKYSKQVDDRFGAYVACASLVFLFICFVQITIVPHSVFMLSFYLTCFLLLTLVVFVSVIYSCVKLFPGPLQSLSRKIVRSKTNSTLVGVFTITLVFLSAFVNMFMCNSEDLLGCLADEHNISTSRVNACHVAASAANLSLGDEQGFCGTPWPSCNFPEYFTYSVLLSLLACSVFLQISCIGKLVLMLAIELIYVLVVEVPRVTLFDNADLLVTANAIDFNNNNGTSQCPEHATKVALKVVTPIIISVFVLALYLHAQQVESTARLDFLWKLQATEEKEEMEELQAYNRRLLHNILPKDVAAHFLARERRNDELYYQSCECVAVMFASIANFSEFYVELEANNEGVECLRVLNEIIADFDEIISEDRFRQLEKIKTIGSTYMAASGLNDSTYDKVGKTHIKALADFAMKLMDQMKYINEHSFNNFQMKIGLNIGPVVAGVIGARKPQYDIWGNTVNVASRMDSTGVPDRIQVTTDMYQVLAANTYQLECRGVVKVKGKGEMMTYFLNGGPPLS

AC2 (recombinant) [2] = target: T2, AC2 (recombinant) (Rattus norvegicus, UniProt P26769); conditions: read-out: RecombinantACs / AC2
T2 construct: gene Adcy2; recombinant membranous AC2 expressed by baculovirus in Sf9 cells; crude Sf9 membranes
T2 sequence (P26769 whole entry): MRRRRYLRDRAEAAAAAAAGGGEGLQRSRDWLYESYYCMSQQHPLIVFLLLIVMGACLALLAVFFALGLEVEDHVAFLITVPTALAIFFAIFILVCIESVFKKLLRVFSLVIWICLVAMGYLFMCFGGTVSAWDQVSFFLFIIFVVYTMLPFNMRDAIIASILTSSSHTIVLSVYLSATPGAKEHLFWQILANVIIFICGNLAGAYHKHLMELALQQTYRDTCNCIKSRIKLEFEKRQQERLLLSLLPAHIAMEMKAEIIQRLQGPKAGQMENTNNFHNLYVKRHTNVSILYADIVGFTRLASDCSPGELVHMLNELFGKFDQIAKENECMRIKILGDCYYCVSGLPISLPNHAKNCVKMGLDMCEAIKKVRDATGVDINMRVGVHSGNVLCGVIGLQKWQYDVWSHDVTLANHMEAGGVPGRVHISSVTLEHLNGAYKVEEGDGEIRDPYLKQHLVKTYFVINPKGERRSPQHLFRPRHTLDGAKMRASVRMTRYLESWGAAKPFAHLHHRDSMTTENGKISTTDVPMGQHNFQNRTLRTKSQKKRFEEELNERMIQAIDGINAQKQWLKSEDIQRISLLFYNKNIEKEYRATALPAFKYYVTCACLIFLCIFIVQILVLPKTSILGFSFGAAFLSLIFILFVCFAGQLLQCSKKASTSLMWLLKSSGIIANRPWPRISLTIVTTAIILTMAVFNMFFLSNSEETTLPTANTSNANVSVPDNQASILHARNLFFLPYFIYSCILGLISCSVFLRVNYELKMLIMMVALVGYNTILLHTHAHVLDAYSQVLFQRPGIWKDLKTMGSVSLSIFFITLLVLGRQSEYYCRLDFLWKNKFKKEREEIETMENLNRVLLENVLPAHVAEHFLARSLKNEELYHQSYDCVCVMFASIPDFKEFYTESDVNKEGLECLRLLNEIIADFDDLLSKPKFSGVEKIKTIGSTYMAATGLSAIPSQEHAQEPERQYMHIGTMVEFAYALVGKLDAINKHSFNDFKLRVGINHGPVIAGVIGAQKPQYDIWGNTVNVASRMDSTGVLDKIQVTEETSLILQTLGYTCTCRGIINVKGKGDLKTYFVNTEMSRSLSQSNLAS

AC1 (recombinant) [3] = target: T3, AC1 (recombinant) (Bos taurus, UniProt P19754); conditions: read-out: RecombinantACs / AC1
T3 construct: gene ADCY1; recombinant membranous AC1 expressed by baculovirus in Sf9 cells; crude Sf9 membranes
T3 sequence (P19754 whole entry): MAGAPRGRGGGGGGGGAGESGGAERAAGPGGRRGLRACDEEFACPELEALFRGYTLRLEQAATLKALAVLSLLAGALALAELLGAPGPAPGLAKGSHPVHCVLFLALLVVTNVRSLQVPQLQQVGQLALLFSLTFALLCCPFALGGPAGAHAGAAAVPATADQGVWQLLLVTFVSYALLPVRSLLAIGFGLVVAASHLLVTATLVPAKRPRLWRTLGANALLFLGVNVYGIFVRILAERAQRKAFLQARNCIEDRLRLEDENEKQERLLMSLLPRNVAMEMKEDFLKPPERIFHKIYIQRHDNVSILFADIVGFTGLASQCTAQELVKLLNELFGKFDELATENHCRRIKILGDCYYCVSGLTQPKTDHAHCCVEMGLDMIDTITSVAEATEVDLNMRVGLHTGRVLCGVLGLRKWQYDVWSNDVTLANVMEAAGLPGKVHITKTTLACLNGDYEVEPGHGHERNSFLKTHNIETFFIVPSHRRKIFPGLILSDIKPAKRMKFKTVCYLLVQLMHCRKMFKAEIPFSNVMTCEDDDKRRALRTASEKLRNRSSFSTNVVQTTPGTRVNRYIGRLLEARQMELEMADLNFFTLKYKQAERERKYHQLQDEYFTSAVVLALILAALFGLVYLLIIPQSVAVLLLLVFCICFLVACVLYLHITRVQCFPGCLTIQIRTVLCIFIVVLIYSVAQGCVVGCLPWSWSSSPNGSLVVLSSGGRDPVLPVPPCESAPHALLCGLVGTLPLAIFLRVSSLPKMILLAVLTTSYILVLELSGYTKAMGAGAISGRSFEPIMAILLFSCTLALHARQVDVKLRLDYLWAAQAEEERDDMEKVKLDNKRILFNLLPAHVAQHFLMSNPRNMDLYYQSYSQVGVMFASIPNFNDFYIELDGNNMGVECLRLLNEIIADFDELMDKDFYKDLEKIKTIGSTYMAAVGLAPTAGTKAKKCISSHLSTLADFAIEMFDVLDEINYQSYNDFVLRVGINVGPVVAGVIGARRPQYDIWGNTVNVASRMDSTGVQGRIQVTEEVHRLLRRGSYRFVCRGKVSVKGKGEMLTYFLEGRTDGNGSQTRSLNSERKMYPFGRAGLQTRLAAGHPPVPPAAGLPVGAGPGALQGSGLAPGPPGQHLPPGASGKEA

AC5 (recombinant) [4] = target: T1, AC5 (recombinant); conditions: read-out: Recombinant ACs / AC5
AC2 (recombinant) [5] = target: T2, AC2 (recombinant); conditions: read-out: Recombinant ACs / AC2
AC1 (recombinant) [6] = target: T3, AC1 (recombinant); conditions: read-out: Recombinant ACs / AC1

EC50 (AC5 (recombinant) [1])	EC50 (AC2 (recombinant) [2])	EC50 (AC1 (recombinant) [3])	IC50 (AC5 (recombinant) [4])	IC50 (AC2 (recombinant) [5])	IC50 (AC1 (recombinant) [6])	Structure (SMILES)
5.8 µM	13.4 µM	2.3 µM	–	–	–	C=C[C@@]1(C)CC(=O)[C@]2(O)[C@@]3(C)[C@@H](O)CCC(C)(C)[C@@H]3[C@H](O)[C@H](OC(C)=O)[C@@]2(C)O1 [Forskolin]
–	–	–	81.1 µM	1110 µM	330 µM	Nc1ncc2c(n1)CC(c1ccco1)CC2=O (stereo not drawn) [NKY80, 2-amino-7-(2-furanyl)-7,8-dihydro-5(6H)-quinazolinone]
–	–	–	9.5 µM	381 µM	110 µM	Nc1ncnc2c1ncn2C1CCCO1 (stereo not drawn) [SQ22,536, 9-(tetra-hydro-2-furanyl)-9H-purin-6-amine]
–	–	–	20 µM	545 µM	138 µM	Nc1ncnc2c1ncn2[C@@H]1O[C@H](CO)[C@@H](O)[C@@H]1O [vidarabine, 9-β-D-arabinosyladenine]
